# From patent US6352992B1, “Endothelin antagonist and beta receptor blocking agent as combined preparations” (Abbott Laboratories, priority 1997, dated 2002)
# System: normotensive awake dogs
# Experiment: Mean arterial blood pressure in normotensive awake dogs after oral administration
# Type: in vivo, beagle dogs
# Settings: Compound A 10 mg/kg, bucindolol 0.1 mg/kg; for mean arterial blood pressure, change with respect to the initial value: combination 10 + 0.1 mg/kg, mean values
# Protocol: In a crossover design, the test substance was administered orally as a capsule to chronically instrumented male beagle dogs (approx 14 kg). The capsule either contained nothing (control N=5), compound A (10 mg/kg, N=10), bucindolol (0.1 mg/kg; N=5) or the combination bucindolol + compound A (0.1+10 mg/kg; N=5). In between the individual administrations, a washing phase of at least one week was observed. The systolic and the diastolic blood pressure were measured using a Statham Transducer P 23 Db, from which the mean arterial blood pressure was calculated. The blood pressure was recorded for 6 h (MI^2, Modular Instrumente, USA).
# Development of the mean arterial blood pressure (mmHg, change with respect to the initial value) in normotensive awake dogs after oral administration of different substances, what is shown are the mean values
smiles,measurement,setting,value
"CC(C)(Cc1c[nH]c2ccccc12)NCC(O)COc1ccccc1C#N (stereo not shown) [Bucindolol, bucindolol]","mean arterial blood pressure, change with respect to the initial value",1h after oral capsule,−0.8 mmHg
same,"mean arterial blood pressure, change with respect to the initial value",2h after oral capsule,−3.8 mmHg
same,"mean arterial blood pressure, change with respect to the initial value",3h after oral capsule,−3.4 mmHg
same,"mean arterial blood pressure, change with respect to the initial value",4h after oral capsule,−3.8 mmHg
same,"mean arterial blood pressure, change with respect to the initial value",5h after oral capsule,−3.8 mmHg
same,"mean arterial blood pressure, change with respect to the initial value",6h after oral capsule,−1.4 mmHg
same,"effect on blood pressure, in words","oral capsule, recorded for 6 h, combination 0.1+10 mg/kg",does not decrease
